Measurements published in US5633277A, “Sulfonamide aminomethylene derivatives as immunosuppressants” (Miles Inc., priority 1995, dated 1997).

How the values were obtained:
human T-cells = assay: Suppression of Human T-Cell Proliferation Assay (mitogen-induced, [3H]-thymidine incorporation); format: cell-based; conditions: for IC50: Homo sapiens, T-cell, 72 hours incubation, mitogen stimulated, read-out: IC50 (inhibition of [3H]-thymidine incorporation of T-cells by 50%)
Text: 2) Human T Lymphocyte Inhibition
Inhibition of mitogen-induced T-cell proliferation can be used to profile immunosuppressive activity of test compounds. In the description of the assay which follows, mitogen-induced T-cell proliferation was used to test the inhibitory potencies of select compounds of the present invention.
In an assay similar to that described by Bradley in Mishell et al. (Eds.), 1980, Selected Methods in Cellular Immunology, pp 156-161, W. H. Freeman & Co., San Fransisco, Calif., T-cells were stimulated by incubation with phytohemagglutinin (PPIA) which binds to cell surface molecules, including the T-cell receptor. This stimulation results in proliferation which can be measured by incorporation of [^3 H]-thymidine into cellular DNA.
The immunosuppressive properties of the compounds of the present invention can be determined by adding various concentrations of the compounds to these cultures and measuring the effect on T-cell proliferation.
Suppression of Human T-Cell Proliferation Assay
Fresh LeukoPaks were obtained from the New York Blood Center, New York, N.Y. The cells, including erythrocytes and leukocytes, were diluted with Hank's Balanced Salt Solution (HBSS) (GIBCO, Grand Island, N.Y.) and layered over Lymphoprep (Nycomed Pharma AS, Oslo, Norway) in sterile 50 ml conical centrifuge tubes. Lymphocytes were isolated at the Hank's/Nycomed interface after centrifugation at 2000×g, 4° C. for 15 min. The lymphocytes were washed with Minimal Essential Medium (GIBCO) containing 2% fetal bovine serum (FBS) (Sigma Chemical Co., St. Louis, Mo.), 1% HEPES buffer (GIBCO) and 1% Penicillin-Stretomycin solution (GIBCO).
T-cells were further purified essentially by sheep erythrocyte (SRBC) rosetting as described by Morimoto et al., 1983, J. Immunol. 130:157. The isolated lymphocytes were adjusted to 2×10^7 cells/ml and 5 ml aliquots of the cell suspension were incubated for 10 minutes at room temperature with 5 ml of a 5% SRBC (Cappel, Organon Technika Corp., West Chester, Pa.) suspension. The cells were gently pelleted by centrifugation at 300 rpm for 10 minutes, followed by a 1 hour incubation at room temperature to allow rosette formation. The cells were gently resuspended,layered over Lymphoprep and centrifuged for 30 minutes at 500×g. The pellet, containing rosetted T-cells and SRBC was treated with ice cold buffered ammonium chloride (GIBCO) to lyse the erythrocytes. T-cells were washed twice with HBSS.
Purified T-cells were resuspended at 2×10^6 cells/ml in complete culture medium composed of RPMI-1640 (Whittaker Bioproducts, Walkerville, Md.) with 10% FBS (Sigma), 2 mM L-glutamine (GIBCO), 1% Penicillin-Streptomycin (GIBCO) and 15 mM HEPES (GIBCO). In 96-well plates (Becton Dickinson, Lincoln Park, N.J.), 0.1 ml aliquots of T-cell suspension were mixed with 0.05 ml of 40 μg/ml PPIA-M (Sigma). The compounds of this invention were dissolved in dimethylsulfoxide at 10 mM and various dilutions in complete medium were added in duplicate wells (0.05 ml/well). The plates were incubated at 37° C. in a humidified atmosphere of 5% carbon dioxide and 95% air for 72 hours.
Proliferation was assessed by measurement of [3H]-thymidine incorporation. During the last 6 hours of incubation, the cells were pulse labelled with 1 μCi/well of [3H]-thymidine (New England Nuclear, Boston, Mass.). The cells were harvested onto glass fiber paper using a plate harvester and the radioactivity incorporated into cellular DNA corresponding to individual wells was measured by standard liquid scintillation counting methods. The mean counts per minute (CPM) of replicate wells was calculated and linear regression analysis of mean CPM versus compound concentration was used to determine the concentration of compound which would inhibit [^3 H]-thymidine incorporation of T-cells by 50% (IC50).

[1] = tested on: Lewis rats sensitized with Complete Freund's adjuvant; assay: Adjuvant Arthritis Model in the Rat; format: in vivo; conditions: uninjected hind paw, day 0 to day 16, 10 mg/kg/dose i.p.
Text: Rats sensitized to mycobacterial antigens in Complete Freund's Adjuvant can develop a rapidly destructive adjuvant arthritis. Adjuvant arthritis appears to be an autoimmune disease. Thus, T lymphocytes from immunized donors can transfer the disease to naive recipients (Pearson and Wood, 1964, J. Exp. Med. 120:547.) and susceptibility is controlled, at least in part, by class II MHC genes (Batisto, et al. 1982, Arthritis Rheum. 25:1194).
Adjuvant Arthritis Model in the Rat
Complete Freund's adjuvant is made by supplementing extra heavy mineral oil with 10 mg/ml heat killed Mycobacterium butyricum (Difco Laboratories, Detroit, Mich.). Lewis rats (Charles Rivers, Willmington, Mass.) are given a 0. 1 ml injection of adjuvant (1 mg/animal mycobacterium) subcutaneously into the right hind footpad. In the injected foot, an acute inflammatory reaction occurs which is characterized by erythema, edema and a predominantly neutrophilic cell infiltrate. This is followed by edema in the uninjected contralateral foot by days 10-12. This secondary response is accompanied by a predominantly mononuclear cell infiltrate, indicating the presence of cell-mediated immunity.
The immune response is quantitated by measuring the change in ankle diameter of the uninjected hind paw from day 0 to day 16 post sensitization. This is accomplished using a hand-held dial micrometer. […]

| SMILES | IC50 (human T-cells) [nM] | inhibition of mitogen-induced T-cell proliferation (in words) (human T-cells) | Δ Ankle Diameter [1] [mm] | % Inhibition (of ankle swelling) ([1]; vs vehicle control) [%] |
| --- | --- | --- | --- | --- |
| CC(C)C[C@@H](CN1CCC[C@H]1C(=O)NCCCCc1ccccc1)NS(=O)(=O)CC12CCC(CC1=O)C2(C)C (single isomer, unassigned) [Example 7] | 2000 | – | – | – |
| CC(C)C[C@@H](CN1CCC[C@H]1C(=O)NCCCCc1ccccc1)NS(C)(=O)=O [Example 1, 1-[2-(S)-Methanesulfonylamino-4-methylpentyl]-L-proline 4-Phenylbutylamide] | 2000 | inhibited mitogen induced T-cell proliferation | 1.6 ± 0.6 | 51 |
| Cc1ccc(S(=O)(=O)N[C@@H](CC(C)C)CN2CCC[C@H]2C(=O)NCCCCc2ccccc2)cc1 [Example 2, 1-[2-(S)-(Toluene-4-sulfonylamino)-4-methylpentyl]-L-proline 4-Phenylbutylamide] | 8000 | – | – | – |
| CC(C)C[C@@H](CN1CCC[C@H]1C(=O)NCCCCc1ccccc1)NS(=O)(=O)c1cccc2cccnc12 [Example 3, 1-[2-(S)-(Quinoline-8-sulfonylamino)-4-methylpentyl]-L-proline 4-Phenylbutylamide] | 5000 | inhibited mitogen induced T-cell proliferation | – | – |
| CC(=O)Nc1nc(C)c(S(=O)(=O)N[C@@H](CC(C)C)CN2CCC[C@H]2C(=O)NCCCCc2ccccc2)s1 [Example 4, 1-[2-(S)-(2-Acetylamino-4-methyl-S-thiazolesulfonylamino)-4-methylpentyl]-L -proline 4-Phenylbutylamide] | 2000 | – | – | – |
| CC(C)C[C@@H](CN1CCC[C@H]1C(=O)NCCCCc1ccccc1)NS(=O)(=O)c1cccs1 [Example 5, 1-[2-(S)-(Thiophene-2-sulfonylamino)-4-methylpentyl]-L-proline 4-Phenylbutylamide] | 3000 | – | – | – |
| CC(C)C[C@@H](CN1CCC[C@H]1C(=O)NCCCCc1ccccc1)NS(=O)(=O)/C=C/c1ccccc1 [Example 6, 1-[2-(S)-(2-phenyl-ethenesulfonylamino)-4-methylpentyl]-L-proline 4-Phenylbutylamtde] | 5000 | – | – | – |
| CC(C)C[C@@H](CN1CCC[C@H]1C(=O)NCCCCc1ccccc1)NS(=O)(=O)c1ccc(-c2ccon2)s1 [Example 8, 1-[2-(S)-(5 - [Isoxazol-25-yl]-thiophene-2-sulfonylamino)-4-methylpentyl]-L-proline 4-Phenylbutylamide] | 1000 | – | – | – |
| CC(C)C[C@@H](CN1CCC[C@H]1C(=O)NCCCCc1ccccc1)NS(=O)(=O)c1c(C(C)C)cc(C(C)C)cc1C(C)C [Example 10, 1-[2-(S)-(2',4',6'-Triisopropylbenzenesulfonylamino)-4-methylpentyl]-L-proline 4-Phenylbutylamide] | 4000 | – | – | – |
| CC[C@H](C)[C@H](NC(=O)[C@@H]1CCCCN1C[C@@H](NS(C)(=O)=O)[C@@H](C)CC)C(=O)NCc1ccccc1 [Example 11] | > 15000 | – | – | – |
